Laboratory results taken from patent publication US10604554B2, “Double-acylated GLP-1 derivatives” (Novo Nordisk A/S, priority 2012, dated 2020).

What was measured:
human GLP-1 receptor [1] = target: T1, human GLP-1 receptor (Homo sapiens, UniProt P43220); test: In vitro potency (CRE luciferase; whole cells); format: cell-based; design: EC50/pM (ratio 1% HSA/0% HSA): unit not given here; conditions: for EC50: BHK cells
T1 construct: expressed in transfected cells; host or cells: BHK cells, clone FCW467-12A/KZ10-1 (parent line BHKTS13), further transfected with CRE luciferase
Protocol: The purpose of this example is to test the activity, or potency, of the GLP-1 derivatives in vitro. The in vitro potency is the measure of human GLP-1 receptor activation in a whole cell assay.
In vitro potency was determined by measuring the response of human GLP-1 receptor in a reporter gene assay. The assay was performed in a stably transfected BHK cell line that expresses the human GLP-1 receptor and contains the DNA for the cAMP response element (CRE) coupled to a promoter and the gene for firefly luciferase (CRE luciferase). When the human GLP-1 receptor was activated it results in the production of cAMP, which in turn results in the luciferase protein being expressed. When assay incubation was completed the luciferase substrate (luciferin) was added and the enzyme converts luciferin to oxyluciferin and produces bioluminescence. The luminescence was measured and was the readout for the assay.
An increase of the in vitro potency, EC50 value, in the presence of serum albumin indicates an affinity to serum albumin and represents a method to predict a protracted pharmacokinetic profile of the test substance in animal models.
The cells were cultured at 5% CO2 in cell culture medium. They were aliquoted and stored in liquid nitrogen. Before each assay an aliquot was taken up and washed twice in PBS before being suspended at the desired concentration in the assay specific buffer.
The following chemicals were used in the assay: Pluronic F-68 (10%) (Gibco 2404), human serum albumin (HSA) (Sigma A9511), ovalbumin (Sigma A5503), DMEM w/o phenol red (Gibco 11880-028), 1 M Hepes (Gibco 15630), Glutamax 100× (Gibco 35050) and steadylite plus (PerkinElmer 6016757).
1) Cell stocks were thawed in a 37° C. water bath.
2) Cells were washed three times in PBS.
3) The cells were counted and adjusted to 5×10^3 cells/50 μl (1×10^5 cells/ml) in assay medium. A 50 μl aliquot of cells was transferred to each well in the assay plate.
4) Stocks of the test compounds and reference compounds were diluted to a concentration of 0.2 μM in 0% assay buffer for the 0% HSA CRE luciferase assay and 1% assay buffer for the HSA CRE luciferase assay. […] 5) A 50 μl aliquot of compound or blank was transferred in triplicate from the dilution plate to the assay plate. […] 7) The assay plate was removed from the incubator and allowed to stand at room temperature for 15 min. 8) A 100 μl aliquot of steadylite plus reagent was added to each well of the assay plate (reagent was light sensitive). 9) Each assay plate was covered with aluminum foil to protect it from light and shaken for 30 min at room temperature. 10) Each assay plate was read in a Packard TopCount NXT instrument. Calculations and Results
The data from the TopCount instrument were transferred to GraphPad Prism software. The software averages the values for each replicate and performs a non-linear regression.

human GLP-1 receptor [2] = target: T1, human GLP-1 receptor; test: GLP-1 receptor binding (SPA, displacement of 125I-GLP-1)
Protocol: The purpose of this experiment is to investigate the binding to the GLP-1 receptor of the GLP-1 derivatives, and how the binding is potentially influenced by the presence of albumin. This is done in an in vitro experiment as described below.
In order to test the binding of the derivatives to albumin, the assay was performed with a low concentration of albumin (0.001%—corresponding to the residual amount thereof in the tracer), as well as with a high concentration of albumin (2.0% added). A shift in the binding affinity, IC50, is an indication that the peptide in question binds to albumin, and thereby a prediction of a potential protracted pharmacokinetic profile of the peptide in question in animal models.
Species (in vitro): Hamster
Biological End Point: Receptor Binding
A stable transfected cell line and a high expressing clone were selected for screening. The cells were grown at 5% CO2 in DMEM, 10% FCS, 1% Pen/Strep (Penicillin/Streptomycin) and 1.0 mg/ml of the selection marker G418.
The cells (approx. 80% confluence) were washed twice in PBS and harvested with Versene (aqueous solution of the tetrasodium salt of ethylenediaminetetraacetic acid), following which they were separated by centrifugation at 1000 rpm for 5 min. The cells/cell pellet must be kept on ice to the extent possible in the subsequent steps. The cell pellet was homogenised with Ultrathurrax for 20-30 seconds in a suitable amount of Buffer 1 (depending on the amount of cells, but e.g. 10 ml). The homogenate was centrifuged at 20000 rpm for 15 minutes. The pellet was resuspended (homogenised) in 10 ml Buffer 2 and re-centrifuged. This step was repeated once more. The resulting pellet was resuspended in Buffer 2, and the protein concentration was determined. The membranes were stored at minus 80° C.
Buffer 1:20 mM Na-HEPES+10 mM EDTA, pH 7.4
Buffer 2:20 mM Na-HEPES+0.1 mM EDTA, pH 7.4
Test compounds, membranes, SPA-particles and [^125I]-GLP-1(7-36)NH2 were diluted in assay buffer. 50 ul (micro liter) HSA (“high albumin” experiment containing 2% HSA), or buffer (“low albumin” experiment containing 0.001% HSA) was added to Optiplate, and 25 ul of test compounds were added. 5-10 ug membrane protein/sample was added (50 ul) corresponding to 0.1-0.2 mg protein/ml (to be preferably optimised for each membrane preparation). SPA-particles (Wheatgerm agglutinin SPA beads, Perkin Elmer, # RPNQ0001) were added in an amount of 0.5 mg/well (50 ul). The incubation was started with [^125I]-GLP-1]-(7-36)NH2 (final concentration 0.06 nM corresponding to 49.880 DPM, 25 ul). The plates were sealed with PlateSealer and incubated for 120 minutes at 30° C. while shaking. The plates were centrifuged (1500 rpm, 10 min) and counted in Topcounter.

[3] = In vitro potency (CRE luciferase) EC50 (0% HSA), 0% HSA
[4] = In vitro potency (CRE luciferase) EC50 (1% HSA), 1% HSA
[5] = Receptor binding affinity IC50 (high HSA), 2.0% HSA (high albumin)
[6] = Receptor binding affinity IC50 (low HSA), 0.001% HSA (low albumin)

T1 sequence (P43220 24-463): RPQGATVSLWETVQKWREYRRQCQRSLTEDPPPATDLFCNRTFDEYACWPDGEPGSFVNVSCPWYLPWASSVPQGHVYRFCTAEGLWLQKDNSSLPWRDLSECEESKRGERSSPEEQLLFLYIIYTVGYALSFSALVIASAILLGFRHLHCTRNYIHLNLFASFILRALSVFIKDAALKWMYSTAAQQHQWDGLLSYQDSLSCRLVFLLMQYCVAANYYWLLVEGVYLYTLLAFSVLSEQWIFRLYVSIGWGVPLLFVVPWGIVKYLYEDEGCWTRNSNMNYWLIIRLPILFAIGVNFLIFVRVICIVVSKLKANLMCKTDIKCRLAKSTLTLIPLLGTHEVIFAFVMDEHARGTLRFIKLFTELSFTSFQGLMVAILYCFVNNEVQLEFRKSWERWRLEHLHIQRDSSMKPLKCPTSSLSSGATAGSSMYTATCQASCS

Row | SMILES | EC50 (human GLP-1 receptor [1]; [3]) [pM] | EC50 (human GLP-1 receptor [1]; [4]) [pM] | EC50/pM (ratio 1% HSA/0% HSA) (human GLP-1 receptor [1]; ratio of EC50 at 1% HSA to EC50 at 0% HSA) | IC50 (human GLP-1 receptor [2]; [5]) [pM] | IC50 (human GLP-1 receptor [2]; [6]) [pM]
1 | CC[C@H](C)[C@H](NC(=O)[C@H](Cc1ccccc1)NC(=O)[C@H](CCC(=O)O)NC(=O)[C@H](CCCCNC(=O)[C@@H](N)CCCCNC(=O)[C@@H](N)CCCCNC(=O)COCCOCCNC(=O)CC[C@H](NC(=O)CCCCCCCCCCOc1ccc(C(=O)O)cc1)C(=O)O)NC(=O)[C@H](C)NC(=O)[C@H](C)NC(=O)[C@H](CCC(N)=O)NC(=O)CNC(=O)[C@H](CCC(=O)O)NC(=O)[C@H](CC(C)C)NC(=O)[C@H](Cc1ccc(O)cc1)NC(=O)[C@H](CO)NC(=O)[C@H](CO)NC(=O)[C@@H](NC(=O)[C@H](CC(=O)O)NC(=O)[C@H](CO)NC(=O)[C@@H](NC(=O)[C@H](Cc1ccccc1)NC(=O)[C@@H](NC(=O)CNC(=O)[C@H](CCC(=O)O)NC(=O)C(C)(C)NC(=O)[C@@H](N)Cc1c[nH]cn1)[C@@H](C)O)[C@@H](C)O)C(C)C)C(=O)N[C@@H](C)C(=O)N[C@@H](Cc1c[nH]c2ccccc12)C(=O)N[C@@H](CC(C)C)C(=O)N[C@H](C(=O)N[C@@H](CCCNC(=N)N)C(=O)NCC(=O)N[C@@H](CCCNC(=N)N)C(=O)N[C@@H](CCCCNC(=O)[C@@H](N)CCCCNC(=O)[C@@H](N)CCCCNC(=O)COCCOCCNC(=O)CC[C@H](NC(=O)CCCCCCCCCCOc1ccc(C(=O)O)cc1)C(=O)O)C(=O)O)C(C)C [Example 34, N^ε26-[(2S)-2-amino-6-[[(2S)-2-amino-6-[[2-[2-[2-[[(4S)-4-carboxy-4-[11-(4-carboxyphenoxy)undecanoylamino]butanoyl]amino]ethoxy]ethoxy]acetyl]amino]hexanoyl]amino]hexanoyl], N^ε37-[(2S)-2-amino-6-[[(2S)-2-amino-6-[[2-[2-[2-[[(4S)-4-carboxy-4-[11-(4-carboxyphenoxy)undecanoylamino]butanoyl]amino]ethoxy]ethoxy]acetyl]amino]hexanoyl]amino]hexanoyl]-[Aib^8,Arg^34,Lys^37]-GLP-1-(7-37)-peptide] | 7.9 | 59 | 9.1 | 45000 | 120
2 | CC[C@H](C)[C@H](NC(=O)[C@H](Cc1ccccc1)NC(=O)[C@H](CCC(=O)O)NC(=O)[C@H](CCCCNC(=O)[C@@H](N)CCCCNC(=O)[C@@H](N)CCCCNC(=O)[C@H](CO)NC(=O)[C@H](CO)NC(=O)CC[C@H](NC(=O)CCCCCCCCCCOc1ccc(C(=O)O)cc1)C(=O)O)NC(=O)[C@H](C)NC(=O)[C@H](C)NC(=O)[C@H](CCC(N)=O)NC(=O)CNC(=O)[C@H](CCC(=O)O)NC(=O)[C@H](CC(C)C)NC(=O)[C@H](Cc1ccc(O)cc1)NC(=O)[C@H](CO)NC(=O)[C@H](CO)NC(=O)[C@@H](NC(=O)[C@H](CC(=O)O)NC(=O)[C@H](CO)NC(=O)[C@@H](NC(=O)[C@H](Cc1ccccc1)NC(=O)[C@@H](NC(=O)CNC(=O)[C@H](CCC(=O)O)NC(=O)C(C)(C)NC(=O)[C@@H](N)Cc1c[nH]cn1)[C@@H](C)O)[C@@H](C)O)C(C)C)C(=O)N[C@@H](C)C(=O)N[C@@H](Cc1c[nH]c2ccccc12)C(=O)N[C@@H](CC(C)C)C(=O)N[C@H](C(=O)N[C@@H](CCCNC(=N)N)C(=O)NCC(=O)N[C@@H](CCCNC(=N)N)C(=O)N[C@@H](CCCCNC(=O)[C@@H](N)CCCCNC(=O)[C@@H](N)CCCCNC(=O)[C@H](CO)NC(=O)[C@H](CO)NC(=O)CC[C@H](NC(=O)CCCCCCCCCCOc1ccc(C(=O)O)cc1)C(=O)O)C(=O)O)C(C)C [Example 35] | 5.5 | – | – | 36000 | 80
3 | CC[C@H](C)[C@H](NC(=O)[C@H](Cc1ccccc1)NC(=O)[C@H](CCC(=O)O)NC(=O)[C@H](CCCCNC(=O)[C@H](CCCCNC(=O)[C@H](CCCCNC(=O)CC[C@H](NC(=O)CCCCCCCCCCOc1ccc(C(=O)O)cc1)C(=O)O)N(C)C)N(C)C)NC(=O)[C@H](C)NC(=O)[C@H](C)NC(=O)[C@H](CCC(N)=O)NC(=O)CNC(=O)[C@H](CCC(=O)O)NC(=O)[C@H](CC(C)C)NC(=O)[C@H](Cc1ccc(O)cc1)NC(=O)[C@H](CO)NC(=O)[C@H](CO)NC(=O)[C@@H](NC(=O)[C@H](CC(=O)O)NC(=O)[C@H](CO)NC(=O)[C@@H](NC(=O)[C@H](Cc1ccccc1)NC(=O)[C@@H](NC(=O)CNC(=O)[C@H](CCC(=O)O)NC(=O)C(C)(C)NC(=O)[C@@H](N)Cc1c[nH]cn1)[C@@H](C)O)[C@@H](C)O)C(C)C)C(=O)N[C@@H](C)C(=O)N[C@@H](Cc1c[nH]c2ccccc12)C(=O)N[C@@H](CC(C)C)C(=O)N[C@H](C(=O)N[C@@H](CCCNC(=N)N)C(=O)NCC(=O)N[C@@H](CCCNC(=N)N)C(=O)N[C@@H](CCCCNC(=O)[C@H](CCCCNC(=O)[C@H](CCCCNC(=O)CC[C@H](NC(=O)CCCCCCCCCCOc1ccc(C(=O)O)cc1)C(=O)O)N(C)C)N(C)C)C(=O)O)C(C)C [Example 37, N^ε26-[(2S)-6-[[(2S)-6-[[(4S)-4-carboxy-4-[11-(4-carboxyphenoxy)undecanoylamino]butanoyl]amino]-2-(dimethylamino)hexanoyl]amino]-2-(dimethylamino)hexanoyl], N^ε37-[(2S)-6-[[(2S)-6-[[(4S)-4-carboxy-4-[11-(4-carboxyphenoxy)undecanoylamino]butanoyl]amino]-2-(dimethylamino)hexanoyl]amino]-2-(dimethylamino)hexanoyl]-[Aib^8,Arg^34,Lys^37]-GLP-1-(7-37)-peptide] | – | 93 | – | 24000 | –
